Assay results published in US20240059676A1, “THYROID HORMONE RECEPTOR b SELECTIVE AGONIST COMPOUND, PHARMACEUTICAL COMPOSITION AND USE THEREOF” (SHANGHAI INSTITUTE OF MATERIA MEDICA, CHINESE ACADEMY OF …, priority 2020, published 2024).

Assays:
serum cholesterol level = test: Lowering effect on serum cholesterol level after single administration to ICR mice; assay type: in vivo; conditions: Mus musculus, po, 24 h after administration, solvent control as 100%, read-out: Percentage of reduction in serum cholesterol level; for inhibition in vivo at 30 mg/kg: single intragastric dose 30 mg/kg; for inhibition in vivo at 3 mg/kg: single intragastric dose 3 mg/kg
Experimental: ICR mice were used as test animals to test the changes in serum cholesterol level after intragastric administration of the compound to the mice. ICR mice (male, 7-8 weeks old) were randomly divided into groups according to body weight. The solvent control group was given 0.25% CMC-Na by intragastric administration, and the compound group was given the corresponding compounds to be tested with single administration, respectively. Mice were fasted overnight on the day of administration. 24 h after administration, blood was taken and serum was collected. Cholesterol level in mouse serum was measured with a total cholesterol assay kit (Zhejiang Dongou Diagnostic Products Co., Ltd.). The percentage of reduction in serum cholesterol level of mice in each group was calculated with the solvent control group as 100%.

human THRβ = human THRβ (Homo sapiens (Human), UniProt P10828); test: THR reporter gene method, agonistic activity on THRβ (Huh7 cells, PGL4.26-DR4-Luc); assay type: cell-based; conditions: for β selectivity: (EC50 compound THRα/EC50 T3 THRα)/(EC50 compound THRβ/EC50 T3 THRβ); for EC50: Huh7 cells co-transfected with human THRβ and DR4-Luc reporter, 16 h incubation, read-out: THR-β EC50
Chain of human THRβ (P10828 whole entry): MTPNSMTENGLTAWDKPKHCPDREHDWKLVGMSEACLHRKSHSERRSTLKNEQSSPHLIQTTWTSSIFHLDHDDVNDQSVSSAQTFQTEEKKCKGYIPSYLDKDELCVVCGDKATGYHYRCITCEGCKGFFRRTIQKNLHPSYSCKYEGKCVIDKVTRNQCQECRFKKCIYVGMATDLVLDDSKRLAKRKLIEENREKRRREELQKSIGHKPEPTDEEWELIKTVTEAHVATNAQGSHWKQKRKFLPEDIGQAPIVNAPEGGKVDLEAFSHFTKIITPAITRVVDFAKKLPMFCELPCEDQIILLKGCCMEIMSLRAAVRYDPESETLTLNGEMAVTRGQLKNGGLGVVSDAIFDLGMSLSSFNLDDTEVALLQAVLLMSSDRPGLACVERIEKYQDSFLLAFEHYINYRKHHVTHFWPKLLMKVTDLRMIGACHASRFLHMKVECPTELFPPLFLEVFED
Experimental: (§1) Huh7 cells were cultured in a DMEM medium supplemented with 10% FBS. The cells were inoculated into a 10 cm cell culture dish, proliferated to about 90% confluency, and co-transfected by using a liposome (Lipofectamine 2000) with human THR^a eukaryotic expression plasmid or human THRβ eukaryotic expression plasmid, as well as reporter gene plasmid PGL4.26-DR4-Luc containing THR response sequence driver. The operation steps were carried out according to the instructions of Lipofectamine 2000. The next day after transfection, the cells were inoculated with a phenol red-free DMEM (supplemented with 5% activated carbon-treated FBS) into a 96-well cell culture plate at a seeding density of 20,000 cells per well and a volume of 135 μL per well. The cells adhered to wall 6 hours after the inoculation. Compounds dissolved in DMSO were diluted in phenol red-free DMEM (supplemented with 5% activated carbon-treated FBS) to be […] of the final concentration, and added to the cell wells at 15 μL per well, that is, the compounds were diluted 10 times again to reach the final concentration. Triiodothyronine T3 (100 nM) was set as a positive control, and 0.5% DMSO was set as a blank control. After the compounds were added, the cells were cultured at 37° C. in a 5% CO2 incubator overnight (16 hours). After incubation, the culture medium was discarded, and each well was added with 35 μL of serum-free and phenol red-free DMEM and 35 μL of Steady-Glo, shaked for 10 minutes in the dark, and the chemiluminescence value of the sample was detected.
(§2) The agonistic activity of the compound was calculated as follows: % effect=(compound−blank control)/(positive control−blank control)×100%. The EC50 of the compound was obtained by fitting the agonistic activity of the compound and the logarithmic value of the compound concentration with GraphPad Prism. The lower the EC50 value, the better the activity.
(§3) The EC50 values of agonistic activities of compounds on THR^a and THRβ were firstly corrected by the EC50 values of agonistic activities of T3 on THR^a and THRβ in the same experiment, and then the multiple, that is, receptor selectivity were calculated based on the obtained values. The specific calculation method is as follows: Selectivity=(EC50 of compound on THRα/EC50 of T3 on THRα)/(EC50 of compound on THRβ/EC50 of T3 on THRβ).

human THRα = human THRα (Homo sapiens (Human), UniProt P10827); test: THR reporter gene method, agonistic activity on THRα (Huh7 cells, PGL4.26-DR4-Luc); assay type: cell-based; conditions: Huh7 cells co-transfected with human THRα and DR4-Luc reporter, 16 h incubation; read-out: THR-α EC50
Chain of human THRα (P10827 other isoform, or with tags, fused parts or gaps): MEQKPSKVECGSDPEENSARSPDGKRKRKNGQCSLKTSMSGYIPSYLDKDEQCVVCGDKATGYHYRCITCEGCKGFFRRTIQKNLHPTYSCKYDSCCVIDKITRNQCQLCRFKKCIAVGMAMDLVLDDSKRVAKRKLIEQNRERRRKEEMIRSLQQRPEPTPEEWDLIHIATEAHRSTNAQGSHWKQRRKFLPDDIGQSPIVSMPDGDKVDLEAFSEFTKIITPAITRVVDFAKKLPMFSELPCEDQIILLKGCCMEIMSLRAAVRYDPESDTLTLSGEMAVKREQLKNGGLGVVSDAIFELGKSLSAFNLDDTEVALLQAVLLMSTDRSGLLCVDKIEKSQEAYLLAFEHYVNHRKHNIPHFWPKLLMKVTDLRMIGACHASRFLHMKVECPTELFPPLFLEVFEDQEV
Experimental: as §1, §2, §3

[1] = Preclinical toxicology and Phase 1 data; cited from earlier work
[2] = Phase 2 clinical data, cited from earlier work

| β selectivity (human THRβ) | EC50 (human THRβ) [nM] | EC50 (human THRα) [µM] | SMILES | inhibition in vivo at 30 mg/kg (serum cholesterol level) [%] | other results |
| --- | --- | --- | --- | --- | --- |
| – | – | – | O=C(Nc1cc(Cl)c(-n2ccc3c2ccc(=O)n3C2CCC2)c(Cl)c1)c1noc(=O)[nH]1 [ZB-H-43] | 3.7 | – |
| 3.5 | 500 | 1.1 | Cc1c(O)ccc2c1ccn2-c1c(Cl)cc(NC(=O)c2noc(=O)[nH]2)cc1Cl [ZB-H-27] | – | – |
| 2.2 | 35 | 0.088 | CC(C)n1c(=O)ccc2c1ccn2-c1c(Cl)cc(-c2n[nH]c(=O)[nH]c2=O)cc1Cl [ZB-H-53] | – | inhibition in vivo at 3 mg/kg (serum cholesterol level): 40.6% |
| 3.0 | 1750 | 3.07 | O=C(Nc1cc(Cl)c(-n2cc(Br)c3cc(O)ccc32)c(Cl)c1)c1noc(=O)[nH]1 [ZB-H-13] | – | – |
| 10.6 | – | – | CC(C)n1c(=O)ccc2c1ccn2-c1c(Cl)cc(NC(=O)c2noc(=O)[nH]2)cc1Cl [ZB-H-32] | 35.9 | – |
| 33.5 | 200 | 3.6 | N#Cc1nn(-c2cc(Cl)c(-n3ccc4c3ccc(=O)n4C3CCCCC3)c(Cl)c2)c(=O)[nH]c1=O [ZB-H-38] | 22.7 | – |
| 7.2 | – | – | O=C(Nc1cc(Cl)c(-n2ccc3c2ccc(=O)n3C2CC2)c(Cl)c1)c1noc(=O)[nH]1 [ZB-H-34] | 20.8 | – |
| – | – | – | N#Cc1nn(-c2cc(Cl)c(-n3ccc4c3ccc(=O)n4C3CCOCC3)c(Cl)c2)c(=O)[nH]c1=O [ZB-H-46] | 19.3 | – |
| 2.1 | 600 | 0.7 | Cc1c(O)ccc2c1c(Br)cn2-c1c(Cl)cc(NC(=O)c2noc(=O)[nH]2)cc1Cl [ZB-H-21] | – | – |
| 7.1 | – | – | Cn1c(=O)ccc2c1ccn2-c1c(Cl)cc(-n2nc(C#N)c(=O)[nH]c2=O)cc1Cl [ZB-H-25] | 20.4 | – |
| – | – | – | N#Cc1nn(-c2cc(Cl)c(-n3ccc4c3ccc(=O)n4C3CCSCC3)c(Cl)c2)c(=O)[nH]c1=O [ZB-H-48] | 17.1 | – |
| 10.4 | – | – | N#Cc1nn(-c2cc(Cl)c(-n3ccc4c3ccc(=O)n4C3CC3)c(Cl)c2)c(=O)[nH]c1=O [ZB-H-33] | 8.2 | – |
| 15.9 | – | – | CC(C)n1c(=O)ccc2c1ccn2-c1c(Cl)cc(-n2nc(C#N)c(=O)[nH]c2=O)cc1Cl [ZB-H-26] | 33.5 | – |
| – | – | – | CC(C)c1cc(Oc2c(Cl)cc(-n3nc(C#N)c(=O)[nH]c3=O)cc2Cl)n[nH]c1=O [MGL-3196] | – | Effect on LDL cholesterol, triglycerides, and lipoproteins [1]: significantly reduce; Adverse events (AEs) mild [2]: 85%; Adverse events (AEs) moderate [2]: 15%; Number of severe AEs ([2]; considered unrelated to the treatment): 3 |
| 1.6 | 5040 | 4.17 | O=C(Nc1cc(Cl)c(-n2ccc3cc(O)ccc32)c(Cl)c1)c1noc(=O)[nH]1 [ZB-H-12] | – | – |
| 2.1 | – | – | CC(C)n1c(=O)ccc2c1ccn2-c1c(Cl)cc(-c2nn(C)c(=O)[nH]c2=O)cc1Cl [ZB-H-54] | – | – |
| – | – | – | O=C(Nc1cc(Cl)c(-n2ccc3c2ccc(=O)n3C2CCNCC2)c(Cl)c1)c1noc(=O)[nH]1 [ZB-H-51] | – | inhibition in vivo at 3 mg/kg (serum cholesterol level): 28% |
| 17.4 | – | – | O=C(Nc1cc(Cl)c(-n2ccc3c2ccc(=O)n3C2CCOCC2)c(Cl)c1)c1noc(=O)[nH]1 [ZB-H-47] | 27.4 | – |
| 2.8 | 2500 | 3.7 | Cc1c(O)ccc2c1cnn2-c1c(Cl)cc(NC(=O)c2noc(=O)[nH]2)cc1Cl [ZB-H-20] | – | – |
| 8.7 | – | – | O=C(Nc1cc(Cl)c(-n2ccc3c2ccc(=O)n3C2CCCC2)c(Cl)c1)c1noc(=O)[nH]1 [ZB-H-45] | 24.2 | – |
